According to publication PMC3995007, “GTP binding controls complex formation by the human ROCO protein MASL1” (The Febs Journal, 2013):

Legend:
MASL1 [1] = molecular target: T1, MASL1 (Homo sapiens, UniProt Q9Y4C4); test: size exclusion chromatography of lysate, shift between HMW and LMW complex, dot blot; assay type: biochemical; settings: 200 µM GDP in HEK293T lysate and mobile phase, pH 7.5; indirect read-out of binding, K422A used as control
T1 construct: gene MFHAS1; overexpressed in HEK293T, clarified lysate; plasmid from Genecopoeia
T1 sequence (Q9Y4C4 2-1052): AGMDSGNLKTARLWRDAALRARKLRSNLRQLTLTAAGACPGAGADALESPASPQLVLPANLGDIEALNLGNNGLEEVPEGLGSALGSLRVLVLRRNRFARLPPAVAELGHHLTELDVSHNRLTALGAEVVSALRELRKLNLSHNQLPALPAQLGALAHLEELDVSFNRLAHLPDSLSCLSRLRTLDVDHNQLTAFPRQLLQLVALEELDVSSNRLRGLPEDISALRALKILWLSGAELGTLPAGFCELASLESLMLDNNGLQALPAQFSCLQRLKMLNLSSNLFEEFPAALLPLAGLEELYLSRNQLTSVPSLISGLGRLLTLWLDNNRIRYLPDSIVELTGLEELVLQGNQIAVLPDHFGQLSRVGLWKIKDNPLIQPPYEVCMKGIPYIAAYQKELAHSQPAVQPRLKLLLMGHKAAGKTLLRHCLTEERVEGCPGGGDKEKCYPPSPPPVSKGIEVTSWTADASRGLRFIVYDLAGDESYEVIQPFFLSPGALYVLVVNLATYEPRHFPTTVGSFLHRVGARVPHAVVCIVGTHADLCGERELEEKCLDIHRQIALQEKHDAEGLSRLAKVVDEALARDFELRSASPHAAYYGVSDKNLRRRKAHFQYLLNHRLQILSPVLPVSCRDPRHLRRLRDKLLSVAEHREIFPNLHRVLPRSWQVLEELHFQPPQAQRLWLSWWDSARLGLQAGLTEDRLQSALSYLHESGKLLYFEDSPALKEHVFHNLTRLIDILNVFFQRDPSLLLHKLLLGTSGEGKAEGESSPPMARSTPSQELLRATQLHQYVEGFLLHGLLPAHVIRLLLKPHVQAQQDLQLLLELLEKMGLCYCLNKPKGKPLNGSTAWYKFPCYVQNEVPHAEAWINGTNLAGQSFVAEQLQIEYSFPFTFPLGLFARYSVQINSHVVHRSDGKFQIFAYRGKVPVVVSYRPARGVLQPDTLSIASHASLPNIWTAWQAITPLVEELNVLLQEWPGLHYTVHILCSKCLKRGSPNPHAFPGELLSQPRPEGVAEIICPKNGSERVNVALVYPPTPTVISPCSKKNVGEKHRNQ

MASL1 [2] = molecular target: T1, MASL1; test: pulldown on GTP-sepharose beads, competition with free GTP, immunoblot; assay type: binding; settings: clarified HEK293T lysate, 4 °C, 2 h; free GTP 10 mM; immobilised GTP; ROC domain site

| SMILES | size exclusion chromatography of lysate, shift between HMW and LMW complex, dot (MASL1 [1]) | pulldown on GTP-sepharose beads, competition with free GTP, immunoblot (MASL1 [2]) |
| --- | --- | --- |
| Nc1nc2c(ncn2[C@@H]2O[C@H](COP(=O)(O)OP(=O)(O)O)[C@@H](O)[C@H]2O)c(=O)[nH]1 [GDP] | GDP shifted the equilibrium between LMW and HMW complex towards the latter |  |
| Nc1nc2c(ncn2[C@@H]2O[C@H](COP(=O)(O)OP(=O)(O)OP(=O)(O)O)[C@@H](O)[C@H]2O)c(=O)[nH]1 [GTP] |  | Wild type HA-tagged MASL1 was able to bind GTP immobilized on sepharose beads |
